The values that follow come from paper PMC5653977 (EMBO Molecular Medicine, 2017).

Structures can show the parent of a compound that is named as a salt.

In the first experiment the test system is NRG1-ERBB4 signaling. The experiment is described as follows: Nrg1-ERBB4-PIK3R1 split TEV co-culture compound screen of the NIH Clinical Collection. In kind it is cell-based, human. The following applies: NIH Clinical Collection NCC-003 raw data; compounds ranked by Z-score; 'flagged' given instead of a Z-score. The text has this:
For our HTS‐compatible split TEV assay approach, human full‐length ERBB4‐Cyt1 was fused to the NTEV fragment, a TEV protease cleavage site (tevS) and the artificial co‐transcriptional activator Gal4‐VP16 (ERBB4‐NTEV‐tevS‐GV); human PIK3R1 was fused to the CTEV fragment (PIK3R1‐CTEV) (Fig 1A). Upon ERBB4 activation, PIK3R1 is recruited to the receptor resulting in a reconstituted protease activity that cleaves off GV. In turn, released GV translocates to the nucleus and binds to upstream activating sequences (UAS) to activate the transcription of a firefly luciferase reporter gene (Fig 1A). A constitutively expressed Renilla luciferase driven under the control of the human thymidine kinase (TK) promoter was used as control to address off‐target effects related to toxicity.
For small molecule screening, the NIH‐NCC Clinical Collection library (sets NCC‐003 and NCC‐201) was used containing 727 small molecules that are FDA‐approved and have a history in clinical applications (www.nihclinicalcollection.com). A Hamilton Labstar robot connected to 37 and 4°C incubators for cell incubation and compound storage and application (Cytomat automated incubator, ThermoScientific) and to a luciferase reader (Berthold Technologies) was used to automatically perform the screening. […] Each batch was screened three times.
For one 96‐well plate, 4 × 10^6 PC12 cells were harvested and diluted in 5 ml assay medium (phenol red‐free DMEM (low glucose, Life Technologies), 10% FCS, 5% HS, no antibiotics). The split TEV assay plasmids (2 μg pcDNA3_ERBB4‐NTEV‐tevS‐GV‐2xHA, 2 μg pTag4C_PIK3R1‐CTEV‐2xHA, 2 μg p5xUAS_firefly luciferase, 2 μg pTK_Renilla luciferase, and 0.5 μg pECFP‐C1 for examining transfection efficiency) were diluted in 2.5 ml Opti‐MEM (Life Technologies) and vortexed. In parallel, 20 μl of the transfection reagent Lipofectamine 2000 was diluted in 2.5 ml Opti‐MEM and vortexed.
For plating of one 96‐well plate, 10 ml suspension, containing the 4 × 10^6 in solution‐transfected cells, was placed in the bubble paddle reservoir of the Hamilton Cellstar robot. 100 μl was seeded per 96‐well using the 96‐tip pipetting head. The homogeneity of the cell suspension was guaranteed over time by mild stirring using the paddling device inside the reservoir. For five plates each, 50 ml of additional cell suspension was used to allow for losses of inaccessible volume.
The cells were allowed to express the plasmids for 24 h before compounds were added. Proper expression and transfection efficiency were verified by ECFP expression on a clear control plate. The compounds were applied in a final concentration of 10 μM using DMSO as diluent. […] Thirty minutes later, 10,000 Nrg1‐expressing PC12 cells in 100 μl assay medium were seeded on top. 24 h after addition of the compounds, the cells were lysed using 40 μl Passive Lysis buffer (Promega) and subjected to a Dual Luciferase Assay (Promega) according to the manufacturer's instructions. The data were analyzed in R Bioconductor using the package cellHTS2 (http://www.bioconductor.org/packages/devel/bioc/html/cellHTS2.html), assessed using the z‐score, and visualized using the program Mondrian (http://stats.math.uni-augsburg.de/mondrian/).
For the compound `CN(C)CCOc1ccc(/C(=C(/CCCl)c2ccccc2)c2ccccc2)cc1` [TOREMIFENE CITRATE], the Z-SCORE entry was “flagged”.

For MEDROXYPROGESTERONE, the Z-SCORE is listed as -2.38.

On to `C=CCc1ccc(O)c(-c2ccc(O)c(CC=C)c2)c1` [HONOKIOL], for which the Z-SCORE entry is given as “flagged”.

The compound `COC(=O)C1=C(C)NC(C)=C(C(=O)OC(C)C)C1c1cccc2nonc12` (centres unmarked) [ISRADIPINE] came in with a Z-SCORE of -1.94.

The experiment is the same for the next values; noted with them: compound screen of the NIH Clinical Collection, sheet raw data NCC-003; compounds ranked by Z-score.
`CO[C@@H]1[C@@H](O[C@@H]2O[C@H](C)[C@@H](O[C@H]3C[C@@](C)(O)[C@@H](OC(=O)CC(C)C)[C@H](C)O3)[C@H](N(C)C)[C@H]2O)[C@@H](CC=O)C[C@@H](C)[C@@H](O)/C=C/C=C/C[C@@H](C)OC(=O)C[C@H]1O` [KITASAMYCIN]: the Z-SCORE stood at 1.6.

Consider `CC(O)CO.N[C@@H](C(=O)N[C@@H]1C(=O)N2C(C(=O)O)=C(CSc3cn[nH]n3)CS[C@H]12)c1ccc(O)cc1` [CEFATRIZINE PROPYLENE GLYCOL], for which the Z-SCORE worked out at 0.04.

`COc1cc2c(cc1OC)[C@@]13CCN4CC5=CCO[C@H]6CC(=O)N2[C@H]1[C@H]6[C@H]5C[C@H]43` [Brucine] displayed a Z-SCORE of 0.21.

Compound `Cn1nnc2c(C(N)=O)ncn2c1=O` [TEMOZOLOMIDE] registered a Z-SCORE of 0.54.

`O=C1N(c2ccccc2)c2ccccc2C1(Cc1ccncc1)Cc1ccncc1` displayed a Z-SCORE of -0.78.

Regarding `COc1cc(-c2ccc(=O)[nH]n2)ccc1OC(F)F`, the Z-SCORE is recorded as 0.32.

Turning to `CC(C)[C@H]1CC[C@H](C(=O)N[C@H](Cc2ccccc2)C(=O)O)CC1` [NATEGLINIDE], the Z-SCORE is reported as -0.03.

`COc1ccc(-c2cc(=O)c3c(OC)c(OC)c(OC)c(OC)c3o2)cc1OC` [Nobiletin] had a Z-SCORE of -0.05.

The compound `CN1CCN2c3ncccc3Cc3ccccc3C2C1` (centres unmarked) [mirtazapine, reference compound] came in with a Z-SCORE of -0.36.

For the compound `Nc1ccn([C@@H]2CS[C@H](CO)O2)c(=O)n1` [LAMIVUDINE, reference compound], the Z-SCORE was 0.14.

Turning to `CN(C)CCc1c[nH]c2ccc(Cn3cncn3)cc12` [RIZATRIPTAN BENZOATE], the Z-SCORE is listed as -0.76.

For `Nc1ccc2cn[nH]c2c1` [6-AMINOINDAZOLE], the Z-SCORE is listed as 0.45.

In the case of `CC(C)(C)NC(=O)[C@H]1CC[C@H]2[C@@H]3CC[C@H]4NC(=O)C=C[C@]4(C)[C@H]3CC[C@]12C` [FINASTERIDE], the Z-SCORE is listed as -0.75.

For `O=c1c(O[C@@H]2O[C@H](CO)[C@@H](O)[C@H](O)[C@H]2O)c(-c2ccc(O)c(O)c2)oc2cc(O)cc(O)c12` [Isoquercitrin], the Z-SCORE came to 0.55.

The compound `CCOC(=O)O[C@]1(C(=O)OCCl)CC[C@H]2[C@@H]3CCC4=CC(=O)C=C[C@]4(C)[C@H]3[C@@H](O)C[C@@]21C` [LOTEPREDNOL ETABONATE] yielded a Z-SCORE of 0.32.

Consider `CN1CCN(c2c(F)cc3c(=O)c(C(=O)O)cn4c3c2SCC4)CC1.Cl` [RUFLOXACIN HCl], for which the Z-SCORE is 1.1.

Regarding `CN(C)CCCC1(c2ccc(F)cc2)OCc2cc(C#N)ccc21` (centres unmarked) [Citalopram hydrobromide], the Z-SCORE was -0.45.

As for `CC(C)(C#N)c1cc(Cn2cncn2)cc(C(C)(C)C#N)c1` [ANASTROZOLE], the Z-SCORE is reported as -0.16.

`CC[C@H]1OC(=O)[C@H](C)[C@@H](O[C@H]2C[C@@](C)(OC)[C@@H](O)[C@H](C)O2)[C@H](C)[C@@H](O[C@@H]2O[C@H](C)C[C@H](N(C)C)[C@H]2O)[C@](C)(OC)C[C@@H](C)C(=O)[C@H](C)[C@@H](O)[C@]1(C)O` [CLARITHROMYCIN] had a Z-SCORE of 0.55.

As for `N[C@@H](C(=O)N[C@@H]1C(=O)N2C(C(=O)O)=C(Cl)CS[C@H]12)c1ccccc1` [CEFACLOR], the Z-SCORE was -0.62.

For the compound `CC(NC(C)(C)C)C(=O)c1cccc(Cl)c1.Cl` (centres unmarked) [AMFEBUTAMONE HCl], the Z-SCORE is 0.

In turn, `N#Cc1ccc(C(c2ccc(C#N)cc2)n2cncn2)cc1` [LETROZOLE] gave a Z-SCORE of -1.06.

Consider `CC(CCCCC(=O)Nc1ccc(C(F)(F)F)cc1)NCCc1cnc[nH]1` (centres unmarked) [HTMT], for which the Z-SCORE is given as -0.18.

`N[C@@H]1CON=C1O` [D-CYCLOSERINE, reference compound] registered a Z-SCORE of 2.86.

As to `CCCCC/C=C\C/C=C\C/C=C\C/C=C\CCCC(=O)Nc1ccc(O)cc1` [AM 404], the Z-SCORE is on record as -1.01.

As for `COc1cc(C[C@@H](CO)[C@H](CO)Cc2ccc(O)c(OC)c2)ccc1O` [SECOISOLARICIRESINOL], the Z-SCORE was -0.17.

For `CS(=O)(=O)O.O=C1CC2(CCCC2)CC(=O)N1CCNCC1COc2ccccc2O1` (centres unmarked), the Z-SCORE was 0.35.

Compound `CC1=NS(=O)(=O)c2cc(Cl)ccc2N1` [DIAZOXIDE] returned a Z-SCORE of 2.34.

The experiment is the same for the next values; noted with them: compounds at 10 μM, 24 h; PC12 split TEV assay cells co-cultured with Nrg1-expressing PC12 cells; analysed with cellHTS2.
For `Cc1ccc(-c2cc(C(F)(F)F)nn2-c2ccc(S(N)(=O)=O)cc2)cc1` [Celecoxib, reference compound], the Z-SCORE is -0.36.

Consider `CCCc1cc(=O)[nH]c(=S)[nH]1` [Propylthiouracil, reference compound], for which the Z-SCORE amounted to 0.58.

In the case of `CN(C)CCOC(c1ccc(Cl)cc1)c1ccccn1` (centres unmarked) [Carbinoxamine Maleate, reference compound], the Z-SCORE is on record as -0.31.

`Cc1cccc(Nc2ccccc2C(=O)O)c1C` [Mefenamic Acid, reference compound] registered a Z-SCORE of 0.34.

On to `CC[C@@H](CO)NCCN[C@@H](CC)CO` [Ethambutol, reference compound], for which the Z-SCORE is on record as -0.12.

In turn, `Cc1cn([C@H]2C[C@H](N=[N+]=[N-])[C@@H](CO)O2)c(=O)[nH]c1=O` [zidovudine, reference compound] displayed a Z-SCORE of 0.17.

`CN1CCN2c3ncccc3Cc3ccccc3C2C1` (centres unmarked) [mirtazapine, reference compound] had a Z-SCORE of 0.65.

In turn, `Nc1ccn([C@@H]2CS[C@H](CO)O2)c(=O)n1` [LAMIVUDINE, reference compound] came in with a Z-SCORE of 0.33.

As to `CCN(CC)CCOc1ccc(C(=C(Cl)c2ccccc2)c2ccccc2)cc1` [Clomid, reference compound], the Z-SCORE was -1.33.

Regarding `Nc1ncn([C@@H]2O[C@H](CO)[C@@H](O)[C@H]2O)c(=O)n1` [5-Azacytidine, reference compound], the Z-SCORE entry is recorded as “flagged”.

Compound `C=CCN1CC[C@]23c4c5ccc(O)c4O[C@H]2C(=O)CC[C@@]3(O)[C@H]1C5` [NALOXONE HYDROCHLORIDE, reference compound] gave a Z-SCORE of -0.39.

With `CCC(C)(C)C(=O)O[C@H]1C[C@@H](C)C=C2C=C[C@H](C)[C@H](CC[C@@H]3C[C@@H](O)CC(=O)O3)[C@H]21` [Simvastatin, reference compound], the Z-SCORE entry is “flagged”.

Consider `CC(C)NCC(O)c1cc(O)cc(O)c1` (centres unmarked) [Metaproterenol, reference compound], for which the Z-SCORE was -0.11.

The compound `Oc1ncnc2[nH]ncc12` [Allopurinol, reference compound] showed a Z-SCORE of 0.21.

In turn, `CC(=O)OCC(=O)[C@@]1(O)CC[C@H]2[C@@H]3CCC4=CC(=O)C=C[C@]4(C)[C@H]3[C@@H](O)C[C@@]21C` [PREDNISOLONE ACETATE, reference compound] showed a Z-SCORE of -0.58.

The compound `CC(CCc1ccccc1)NCC(O)c1ccc(O)c(C(N)=O)c1` (centres unmarked) [LABETALOL HYDROCHLORIDE, reference compound] came in with a Z-SCORE of -1.04.

With `N[C@@H]1CON=C1O` [D-CYCLOSERINE, reference compound], the Z-SCORE is -0.66.

Regarding `O=C1c2c(O)ccc(O)c2C(=O)c2c(NCCNCCO)ccc(NCCNCCO)c21` [MITOXANTRONE, reference compound], the Z-SCORE entry is listed as “flagged”.
